In US9783849B2, “Method for identifying immunoreactive peptides” (immatics biotechnologies GmbH, priority 2002, dated 2017):

Key:
[1] = system: CD8+ T-lymphocytes (PBMC); experiment: staining of PBMC with HLA-A*0201 tetramers, flow cytometry; format: cell-based, human
Description: Peripheral blood mononuclear cells (in the following PBMC) from two healthy donors (HDI and HD2), which were serologically typed as CMV-positive, were isolated by gradient centrifugation (FicoLite H) and frozen.
HLA-A *0201 tetrameric complexes were produced as described by Altman et al., 1996, Phenotypic analysis of antigen-specific T-lymphocytes, Science 274: 94-96, as follows: The HLA-A2-binding peptides used for the refolding were […] (SEQ ID NO: 1) from keratin 18 and […] (SEQ ID NO: 2) from pp65 HCMVA. Tetramers were assembled by mixing biotinylated monomers with streptavidin-PE or streptavidin-APC and 2-3×10^6 cells were incubated 30 min at 4° C. with both tetramers: 10 μg/ml for each monomer in PBS, 0.01% NaN3, 2 mM EDTA, 50% fetal calf serum). Then, monoclonal antibodies Anti-CD4-FITC (Coulter-Immunotech) and Anti-CD8-PerCP (Becton Dickinson) were added for 20 min. After three washes, samples were fixed in FACS buffer, 1% formaldehyde. Four-color analysis was performed on a FACScalibur cytometer (Becton Dickinson).
Staining of PBMC of tumor patients and healthy individuals with HLA-A*0201 tetramers was performed with tetramers reconstituted either with adipophilin, keratin 18 or met-proto-oncogene.
Dot plots show samples from one of three independent experiments for 1×10^6 PBMC. In the plots, percentage of tetramer^+-cells within the CD8^+ CD4^− population are indicated.

[2] = system: CD8+ T-cells (PBMC from HLA-A2 positive renal cell carcinoma patients); experiment: quantitative PCR assay of γ-Interferon-mRNA production after 7 day in vitro sensitization with peptide; format: cell-based, human; settings: PBMC from 6 HLA-A2 positive renal cell carcinoma patients
Method: PBMC from 6 HLA-A2 positive renal cell carcinoma patients were tested for reaction against four of the relevant peptides: HLA-A*02-restricted ligands from adipophilin, keratin 18, K1AA0367 and met-proto-oncogene. In doing so, a very sensitive quantitative PCT assay was carried out to detect γ-Interferon-mRNA production by CD8^+ T-cells following a 7 day-in vitro-sensitization with peptide.

Sequence	staining of the keratin 18-specific CD8+ population with the tetramer ([1]; simultaneous staining with HLA-A2/keratin 18-PE and HLA-A2/CMV-APC tetramers, specificity control)	γ-Interferon-mRNA production by CD8+ T-cells (response to peptide) [2]	healthy individuals in whom a significant specific CD8+ T-lymphocyte population was found ([1]; HLA-A*0201 tetramer staining of PBMC of healthy individuals)
NLVPMVATV [CMV tetramer, reference compound]	did not stain		
SVASTITGV (listed as Homo sapiens) [adipophilin, HLA-A*02-restricted ligand from adipophilin]		Sporadic responses	
YVDPVITSI (listed as Homo sapiens) [met-proto-oncogene, HLA-A*02-restricted ligand derived from met proto-oncogene]		Sporadic responses	
ALLNIKVKL (listed as Homo sapiens) [keratin 18]		Sporadic responses	4 out of 22
